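Method: 48-hour compound exposure of cells in 96-well plates, five concentrations, linear interpolation of endpoints. At the GI50, growth is halved.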 Active and inactive are the calls of the source. Rule as the data show it: active = GI50 up to about 1.1 µM and inactive = higher.
How the values were obtained:
Assay in all cases: NCI-60 cell line screen, 48 h
[1] = tested on: SK-MEL-5
[2] = tested on: OVCAR-3
[3] = tested on: SF-295
[4] = tested on: SNB-19
[5] = tested on: NCI-H226
[6] = tested on: SK-MEL-2
[7] = tested on: SF-268
[8] = tested on: TK-10
[9] = tested on: MDA-MB-435
[10] = tested on: NCI-H23
[11] = tested on: SR
[12] = tested on: MCF7
[13] = tested on: SN12C
[14] = tested on: OVCAR-5
[15] = tested on: SF-539
[16] = tested on: CAKI-1
[17] = tested on: A549
[18] = tested on: 786-0
[19] = tested on: SK-MEL-28
[20] = tested on: OVCAR-4

Row | Compound | GI50 [1] | GI50 [2] | GI50 [3] | GI50 [4] | GI50 [5] | GI50 [6] | GI50 [7] | GI50 [8] | GI50 [9] | GI50 [10] | GI50 [11] | GI50 [12] | GI50 [13] | GI50 [14] | GI50 [15] | GI50 [16] | GI50 [17] | GI50 [18] | GI50 [19] | GI50 [20]
1 | O=c1oc2cc(O)ccc2c(O)c1C(c1ccccc1F)c1c(O)c2ccc(O)cc2oc1=O | 28.4 µM (inactive) | > 100 µM (inactive) | > 100 µM (inactive) | > 100 µM (inactive) | > 100 µM (inactive) | 45 µM (inactive) | 78.2 µM (inactive) | > 100 µM (inactive) | 43.8 µM (inactive) | > 100 µM (inactive) | 34.7 µM (inactive) | 45.2 µM (inactive) | > 100 µM (inactive) | > 100 µM (inactive) | 31.7 µM (inactive) | > 100 µM (inactive) | > 100 µM (inactive) | > 100 µM (inactive) | 52 µM (inactive) | 
2 | COc1ccc(C(OCC2OC3(COC(c4ccccc4)(c4ccc(OC)cc4)c4ccc(OC)cc4)C(Oc4nc(=O)ccn43)C2O)(c2ccccc2)c2ccc(OC)cc2)cc1 (centres undefined) | > 100 µM (inactive) | > 100 µM (inactive) | > 100 µM (inactive) | 88.9 µM (inactive) | > 100 µM (inactive) | > 100 µM (inactive) | > 100 µM (inactive) | > 100 µM (inactive) | > 100 µM (inactive) | > 100 µM (inactive) | > 100 µM (inactive) | > 100 µM (inactive) | > 100 µM (inactive) | > 100 µM (inactive) | > 100 µM (inactive) | > 100 µM (inactive) | > 100 µM (inactive) | > 100 µM (inactive) | > 100 µM (inactive) | > 100 µM (inactive)
3 | O=c1n(-c2ccccc2)c(=O)n2n1C1Cc3ccccc3C12 (centres undefined) | > 100 µM (inactive) | > 100 µM (inactive) | > 100 µM (inactive) | > 100 µM (inactive) | > 100 µM (inactive) | > 100 µM (inactive) | > 100 µM (inactive) | > 100 µM (inactive) | > 100 µM (inactive) | > 100 µM (inactive) | > 100 µM (inactive) | > 100 µM (inactive) | > 100 µM (inactive) | > 100 µM (inactive) | > 100 µM (inactive) | > 100 µM (inactive) | > 100 µM (inactive) | > 100 µM (inactive) | > 100 µM (inactive) | 
4 | CCCCc1ccc(Nc2nc(Cl)c3c(ncn3COCCOC(C)=O)n2)cc1 | 18.7 µM (inactive) | 21.2 µM (inactive) | 14.4 µM (inactive) | 20.9 µM (inactive) | 17.4 µM (inactive) | 19.1 µM (inactive) | 19.2 µM (inactive) | 20.4 µM (inactive) | 17.7 µM (inactive) | 18.7 µM (inactive) | 20.7 µM (inactive) | 22.5 µM (inactive) | 19.3 µM (inactive) | 18.5 µM (inactive) | 19 µM (inactive) | 25.9 µM (inactive) | 19 µM (inactive) | 20.1 µM (inactive) |  | 24.8 µM (inactive)
5 | Cc1nc2ccc(S(=O)(=O)Nc3ccccc3Cl)cc2c(=O)n1NC(=O)CNc1ccccc1Cl |  | > 100 µM (inactive) | > 100 µM (inactive) | > 100 µM (inactive) | > 100 µM (inactive) | > 100 µM (inactive) | > 100 µM (inactive) | > 100 µM (inactive) | > 100 µM (inactive) | > 100 µM (inactive) | > 100 µM (inactive) | > 100 µM (inactive) | > 100 µM (inactive) | > 100 µM (inactive) | > 100 µM (inactive) | > 100 µM (inactive) | > 100 µM (inactive) | > 100 µM (inactive) | > 100 µM (inactive) | > 100 µM (inactive)
6 | CCOC(=O)C#Cc1ccccc1 | 3.72 µM (inactive) | 19.1 µM (inactive) | 13.5 µM (inactive) | 14.8 µM (inactive) | 20 µM (inactive) | 1.69 µM (inactive) |  | 21.6 µM (inactive) | 7.18 µM (inactive) | 7.26 µM (inactive) | 2.05 µM (inactive) | 10.1 µM (inactive) | 5.55 µM (inactive) | 5.08 µM (inactive) | 5.74 µM (inactive) | 14.4 µM (inactive) | 13.2 µM (inactive) | 4.84 µM (inactive) | 16.8 µM (inactive) | 2.54 µM (inactive)
7 | CCN(CC)c1ccc2cc(-c3nc4ccccc4n3C)c(=O)oc2c1 | 0.0948 µM (active) | 0.24 µM (active) | 0.285 µM (active) | 0.408 µM (active) | 0.302 µM (active) | 0.255 µM (active) | 2.05 µM (inactive) | > 100 µM (inactive) | 0.0369 µM (active) | 0.334 µM (active) | 0.0986 µM (active) | 0.667 µM (active) | 0.713 µM (active) | 1.15 µM (inactive) | 0.222 µM (active) | 0.288 µM (active) | 0.578 µM (active) | 0.381 µM (active) |  | > 100 µM (inactive)
